Laboratory results from paper PMC7914298 (Bioorganic & medicinal chemistry, 2020).
Where two headings read alike, the source gives them in different places.

How the values were obtained:
[1] = test system: resistant E. coli strains; assay: Cross-resistance testing of resistant E. coli strains; format: cell-based, Escherichia coli; details: for Cross-resistance of 17-resistant E. coli strains (in words): strains initially made resistant to 17; for Cross-resistance of nitrofurantoin-resistant E. coli strains (in words): strains initially made resistant to nitrofurantoin; for Cross-resistance of nifuroxazide-resistant E. coli strains (in words): strains initially made resistant to nifuroxazide
[2] = molecular target: E. coli GroEL/ES (Escherichia coli, UniProt P0A6F5); assay: In situ NfsB-GroEL/ES-dMDH refolding assay; format: biochemical; details: activated by E. coli NfsB
E. coli GroEL/ES, sequence (P0A6F5 2-548): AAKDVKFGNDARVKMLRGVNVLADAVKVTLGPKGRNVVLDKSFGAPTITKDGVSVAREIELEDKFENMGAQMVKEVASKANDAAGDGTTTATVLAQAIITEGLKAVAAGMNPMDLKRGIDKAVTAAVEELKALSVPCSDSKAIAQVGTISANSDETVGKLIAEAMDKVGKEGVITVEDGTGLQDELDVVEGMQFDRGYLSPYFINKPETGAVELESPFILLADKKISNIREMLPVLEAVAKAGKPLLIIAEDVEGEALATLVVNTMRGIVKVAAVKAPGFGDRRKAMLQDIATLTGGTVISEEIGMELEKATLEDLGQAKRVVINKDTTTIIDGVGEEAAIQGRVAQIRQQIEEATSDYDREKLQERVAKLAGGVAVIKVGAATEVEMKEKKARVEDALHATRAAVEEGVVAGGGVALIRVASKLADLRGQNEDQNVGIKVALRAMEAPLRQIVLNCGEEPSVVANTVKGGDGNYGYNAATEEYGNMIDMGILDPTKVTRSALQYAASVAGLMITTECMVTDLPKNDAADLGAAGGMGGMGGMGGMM

[3] = test system: NEB 5-alpha E. coli; format: cell-based, Escherichia coli; details: 12-day serial passage, duplicates
[4] = test system: human FHs 74 Int small intestinal cells; assay: Alamar Blue cell viability assay, FHs 74 Int small intestine cells; details: for Cytotoxicity to human cells (in words): FHs 74 Int shown, FHC colon cells similar
[5] = test system: human FHC colon cells; assay: Alamar Blue cell viability assay, FHC colon cells; details: CC50 FHC colon cells over EC50 E. coli proliferation
[6] = molecular target: T1, native MDH (malate dehydrogenase) (Sus scrofa, UniProt P00346); assay: Native MDH enzymatic activity counter-screen; format: biochemical
T1 sequence (P00346 25-338): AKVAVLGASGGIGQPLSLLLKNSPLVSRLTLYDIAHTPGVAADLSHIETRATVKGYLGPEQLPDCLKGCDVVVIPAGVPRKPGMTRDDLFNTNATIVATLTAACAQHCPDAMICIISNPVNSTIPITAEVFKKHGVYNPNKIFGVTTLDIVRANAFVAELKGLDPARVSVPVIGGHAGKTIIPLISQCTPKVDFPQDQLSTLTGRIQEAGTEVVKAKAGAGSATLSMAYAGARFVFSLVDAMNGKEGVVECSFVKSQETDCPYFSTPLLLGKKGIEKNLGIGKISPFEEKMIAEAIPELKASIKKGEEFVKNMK

[7] = molecular target: T1, native MDH (malate dehydrogenase); format: biochemical
[8] = test system: Klebsiella pneumoniae (ATCC #13883); assay: K. pneumoniae bacterial proliferation assay; format: cell-based
[9] = test system: human mitochondrial HSP60/10 chaperonin system; details: ref [59], [84]; cited from earlier work

IC50 [6] [µM] | IC50 [7] [µM] | Structure (SMILES) | Time for E. coli to develop intermediate resistance [3] [days] | Cytotoxicity to human cells (in words) [4] | other results
– | – | O=C(N/N=C/c1ccc([N+](=O)[O-])o1)c1ccc(O)cc1 [Nifuroxazide] | 3 to 5 | low to no cytotoxicity | Cross-resistance of 17-resistant E. coli strains (in words) [1]: susceptible; Cross-resistance of nitrofurantoin-resistant E. coli strains (in words) [1]: still sensitive; GroEL/ES inhibition in the presence of NfsB (in words) [2]: weak to moderate
> 63 | > 56 | O=C(N/N=C/c1ccc([N+](=O)[O-])o1)c1cccs1 [compound 16] | – | low to no cytotoxicity | Inhibition of K. pneumoniae (in words) [8]: moderate inhibitors of K. pneumoniae
> 63 | > 56 | O=C(N/N=C/c1ccc([N+](=O)[O-])o1)c1ccncc1 [compound 19] | – | – | –
– | – | Cc1ccc(C(=O)Nc2ccc(S(=O)(=O)O)c3cc(S(=O)(=O)O)cc(S(=O)(=O)O)c23)cc1NC(=O)c1cccc(NC(=O)Nc2cccc(C(=O)Nc3cc(C(=O)Nc4ccc(S(=O)(=O)O)c5cc(S(=O)(=O)O)cc(S(=O)(=O)O)c45)ccc3C)c2)c1 [suramin] | – | – | HSP60/10 inhibition (in words) [9]: potent HSP60/10 inhibitor
> 63 | > 56 | CN(C)c1ccc(C(=O)N/N=C/c2ccc([N+](=O)[O-])o2)cc1 [compound 21] | – | – | –
> 63 | > 56 | O=C(N/N=C/c1ccc([N+](=O)[O-])o1)c1ccccc1 [compound 18] | – | – | –
> 63 | > 56 | COc1ccc(C(=O)N/N=C/c2ccc([N+](=O)[O-])o2)cc1 [compound 20] | – | low to no cytotoxicity | SI (CC50 / EC50) Colon [5]: >53

Structure (SMILES) | IC50 [6] [µM] | IC50 [7] [µM] | Time for E. coli to develop intermediate resistance [3] [days] | Cytotoxicity to human cells (in words) [4] | other results
O=C1CN(/N=C/c2ccc([N+](=O)[O-])o2)C(=O)N1 [Nitrofurantoin, reference compound] | > 63 | > 56 | 3 to 5 | low to no cytotoxicity | SI (CC50 / EC50) Colon [5]: >146; Cross-resistance of 17-resistant E. coli strains (in words) [1]: susceptible to nifuroxazide, but not nitrofurantoin; Cross-resistance of nifuroxazide-resistant E. coli strains (in words) [1]: cross-resistant; GroEL/ES inhibition in the presence of NfsB (in words) [2]: weak to moderate; SI (CC50 / EC50) Intestine ([4]; CC50 FHs 74 Int cells over EC50 E. coli proliferation): >146
O=C(N/N=C/c1ccc([N+](=O)[O-])o1)c1ccc(Cl)s1 [compound 17] | > 63 | > 56 | 3 to 5 | low to no cytotoxicity | Cross-resistance of nifuroxazide-resistant E. coli strains (in words) [1]: cross-resistant; Cross-resistance of nitrofurantoin-resistant E. coli strains (in words) [1]: still sensitive; Inhibition of K. pneumoniae (in words) [8]: moderate inhibitors of K. pneumoniae
